Measurements from patent US10208089B2, “Modulation of complement activity” (priority 2014, dated 2019).
Starred links: 1 amine or outer side, 2 acyl side, 3 side chain; linkers in the order of their positions; H or OH if unused. Positions of bridges follow the written chain, without caps; N, C: chain ends. Non-standard residues stand in square brackets, D forms with d. Residues, ends and D or L forms follow the SMILES beside them. Trp(7-aza) = N[C@@H](Cc1c[nH]c2ncccc12)C(=O)O; mXylylene = c1cc(C[*:1])cc(C[*:2])c1; Phg = N[C@H](C(=O)O)c1ccccc1; NMeS = CN[C@@H](CO)C(=O)O; Nva = CCC[C@H](N)C(=O)O

Legend:
rat C5 = molecular target: T1, rat C5 (Rattus norvegicus, UniProt P08650); assay: Ex vivo hemolysis assays in the rat study
T1 construct: from tissue; host or cells: plasma of dosed male rats
T1 sequence (P08650 19-1681): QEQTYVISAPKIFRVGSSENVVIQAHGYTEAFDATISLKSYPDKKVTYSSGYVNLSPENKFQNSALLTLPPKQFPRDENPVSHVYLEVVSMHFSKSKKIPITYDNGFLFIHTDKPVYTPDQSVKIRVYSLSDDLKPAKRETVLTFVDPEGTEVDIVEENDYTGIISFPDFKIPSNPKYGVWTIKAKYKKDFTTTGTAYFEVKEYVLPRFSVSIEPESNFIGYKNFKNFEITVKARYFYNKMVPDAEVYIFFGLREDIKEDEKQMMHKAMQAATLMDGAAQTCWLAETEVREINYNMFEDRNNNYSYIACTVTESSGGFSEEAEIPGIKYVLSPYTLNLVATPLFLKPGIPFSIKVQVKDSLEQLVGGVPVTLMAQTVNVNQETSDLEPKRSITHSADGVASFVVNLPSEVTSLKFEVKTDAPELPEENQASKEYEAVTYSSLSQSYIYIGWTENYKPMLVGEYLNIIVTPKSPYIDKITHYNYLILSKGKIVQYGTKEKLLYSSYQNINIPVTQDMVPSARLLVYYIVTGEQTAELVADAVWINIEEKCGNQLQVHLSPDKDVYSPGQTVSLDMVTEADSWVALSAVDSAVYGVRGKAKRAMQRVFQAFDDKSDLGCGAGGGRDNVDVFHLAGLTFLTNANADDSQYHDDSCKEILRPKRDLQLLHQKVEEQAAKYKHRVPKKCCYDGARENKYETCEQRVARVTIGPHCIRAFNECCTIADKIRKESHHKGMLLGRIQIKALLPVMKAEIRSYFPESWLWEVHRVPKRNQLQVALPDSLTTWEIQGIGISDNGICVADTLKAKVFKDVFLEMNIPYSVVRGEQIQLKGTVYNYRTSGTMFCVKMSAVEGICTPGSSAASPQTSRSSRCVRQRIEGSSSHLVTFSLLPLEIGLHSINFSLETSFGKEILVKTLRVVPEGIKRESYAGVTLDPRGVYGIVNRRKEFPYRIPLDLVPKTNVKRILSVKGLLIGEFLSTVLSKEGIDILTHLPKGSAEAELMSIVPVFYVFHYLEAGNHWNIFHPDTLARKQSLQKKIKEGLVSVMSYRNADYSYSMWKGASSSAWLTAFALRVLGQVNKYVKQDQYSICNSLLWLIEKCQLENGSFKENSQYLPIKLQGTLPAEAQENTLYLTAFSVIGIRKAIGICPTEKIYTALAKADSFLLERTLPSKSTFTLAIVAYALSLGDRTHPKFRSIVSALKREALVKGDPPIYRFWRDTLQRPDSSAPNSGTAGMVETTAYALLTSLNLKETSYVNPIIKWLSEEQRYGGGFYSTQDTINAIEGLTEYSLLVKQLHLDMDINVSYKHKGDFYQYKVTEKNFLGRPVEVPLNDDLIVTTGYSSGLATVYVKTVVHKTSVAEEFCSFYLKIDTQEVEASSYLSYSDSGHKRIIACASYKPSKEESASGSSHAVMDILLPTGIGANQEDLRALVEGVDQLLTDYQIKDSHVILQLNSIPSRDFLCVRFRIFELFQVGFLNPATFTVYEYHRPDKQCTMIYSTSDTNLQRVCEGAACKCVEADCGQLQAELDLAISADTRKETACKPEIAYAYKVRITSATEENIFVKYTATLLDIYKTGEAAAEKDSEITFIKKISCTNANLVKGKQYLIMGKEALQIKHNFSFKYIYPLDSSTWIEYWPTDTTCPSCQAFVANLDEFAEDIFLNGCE

[1] = Pharmacokinetic studies in rat (IV and SC); settings: male rats, SC 30 mg/kg, combined plasma concentrations of R3152 and R3201
Protocol: Left: Male Sprague-Dawley rats (n=3) were injected intravenously at a single 2 mg/kg dose. Blood samples were collected at indicated time points, processed into plasma, and analyzed for the indicated compound by LC-MS. […] […] Blood samples were collected at indicated time points, processed into plasma, and analyzed for the indicated compound by LC-MS.
Blood samples were collected at indicated time points, processed into plasma, and analyzed for the indicated compound by LC-MS. […] Blood samples were collected at indicated time points, processed into plasma, and analyzed for the indicated compound by LC-MS.

[2] = cynomolgus monkey, single 3 mg/kg IV
in vivo = settings: male, cynomolgus monkey, iv, 3 mg/kg
primate C5 protein [3] = assay: Ex vivo hemolysis assay on plasma samples from the cynomolgus PK study; format: in vivo, cynomolgus monkey
Description: Also shown are changes in hemolytic activity (squares) at the same time points.

primate C5 protein [4] = assay: Hemolysis assay with exogenous compound added to normal cynomolgus plasma; format: cell-based, cynomolgus monkey
C5a = C5a EIA on supernatant from human RBC hemolysis assay; format: biochemical; settings: hemolysis assay supernatant diluted 1:50; read-out: IC50, inhibition of formation of C5a
Protocol: Levels of C5a correlate with complement activity and are therefore an indicator of the ability of the compounds tested to inhibit complement activity. Supernatant from the hemolysis assay was diluted 1:50 and assayed for C5a levels. […] As used herein, the term “IC50” refers to the half maximal inhibitory concentration, a value used to indicate the amount of the inhibitor needed to reduce a given reaction or process by half.
Inhibition of the production of C5a and the membrane attack complex (MAC) were measured by MicroVue EIA kits (Quidel Corporation, San Diego, Calif.).

[5] = system: membrane attack complex (MAC); assay: Membrane attack complex (MAC) EIA on supernatant from human RBC hemolysis assay; format: biochemical; settings: hemolysis assay supernatant diluted 1:5; read-out: IC50, inhibition of formation of the MAC
Protocol: Supernatant from the hemolysis assay was diluted 1:5 and assayed for MAC levels.
C5 inhibitory activity was assessed by enzyme immunoassay (EIA). Inhibition of the production of C5a and the membrane attack complex (MAC) were measured by MicroVue EIA kits (Quidel Corporation, San Diego, Calif.).

C5 [6] = molecular target: T2, C5 (Homo sapiens, UniProt P01031); assay: Human hemolysis assay (RBC lysis assay using complete human sera); format: cell-based; set-up: with complete human sera (Complement Technology, Tyler Tex.) and polypeptides; tissue Complement Technology, Tyler Tex; host or cells: complete human serum; settings: inhibition of lysis of antibody-sensitized sheep erythrocytes, complete human sera
T2 sequence (P01031 19-1676): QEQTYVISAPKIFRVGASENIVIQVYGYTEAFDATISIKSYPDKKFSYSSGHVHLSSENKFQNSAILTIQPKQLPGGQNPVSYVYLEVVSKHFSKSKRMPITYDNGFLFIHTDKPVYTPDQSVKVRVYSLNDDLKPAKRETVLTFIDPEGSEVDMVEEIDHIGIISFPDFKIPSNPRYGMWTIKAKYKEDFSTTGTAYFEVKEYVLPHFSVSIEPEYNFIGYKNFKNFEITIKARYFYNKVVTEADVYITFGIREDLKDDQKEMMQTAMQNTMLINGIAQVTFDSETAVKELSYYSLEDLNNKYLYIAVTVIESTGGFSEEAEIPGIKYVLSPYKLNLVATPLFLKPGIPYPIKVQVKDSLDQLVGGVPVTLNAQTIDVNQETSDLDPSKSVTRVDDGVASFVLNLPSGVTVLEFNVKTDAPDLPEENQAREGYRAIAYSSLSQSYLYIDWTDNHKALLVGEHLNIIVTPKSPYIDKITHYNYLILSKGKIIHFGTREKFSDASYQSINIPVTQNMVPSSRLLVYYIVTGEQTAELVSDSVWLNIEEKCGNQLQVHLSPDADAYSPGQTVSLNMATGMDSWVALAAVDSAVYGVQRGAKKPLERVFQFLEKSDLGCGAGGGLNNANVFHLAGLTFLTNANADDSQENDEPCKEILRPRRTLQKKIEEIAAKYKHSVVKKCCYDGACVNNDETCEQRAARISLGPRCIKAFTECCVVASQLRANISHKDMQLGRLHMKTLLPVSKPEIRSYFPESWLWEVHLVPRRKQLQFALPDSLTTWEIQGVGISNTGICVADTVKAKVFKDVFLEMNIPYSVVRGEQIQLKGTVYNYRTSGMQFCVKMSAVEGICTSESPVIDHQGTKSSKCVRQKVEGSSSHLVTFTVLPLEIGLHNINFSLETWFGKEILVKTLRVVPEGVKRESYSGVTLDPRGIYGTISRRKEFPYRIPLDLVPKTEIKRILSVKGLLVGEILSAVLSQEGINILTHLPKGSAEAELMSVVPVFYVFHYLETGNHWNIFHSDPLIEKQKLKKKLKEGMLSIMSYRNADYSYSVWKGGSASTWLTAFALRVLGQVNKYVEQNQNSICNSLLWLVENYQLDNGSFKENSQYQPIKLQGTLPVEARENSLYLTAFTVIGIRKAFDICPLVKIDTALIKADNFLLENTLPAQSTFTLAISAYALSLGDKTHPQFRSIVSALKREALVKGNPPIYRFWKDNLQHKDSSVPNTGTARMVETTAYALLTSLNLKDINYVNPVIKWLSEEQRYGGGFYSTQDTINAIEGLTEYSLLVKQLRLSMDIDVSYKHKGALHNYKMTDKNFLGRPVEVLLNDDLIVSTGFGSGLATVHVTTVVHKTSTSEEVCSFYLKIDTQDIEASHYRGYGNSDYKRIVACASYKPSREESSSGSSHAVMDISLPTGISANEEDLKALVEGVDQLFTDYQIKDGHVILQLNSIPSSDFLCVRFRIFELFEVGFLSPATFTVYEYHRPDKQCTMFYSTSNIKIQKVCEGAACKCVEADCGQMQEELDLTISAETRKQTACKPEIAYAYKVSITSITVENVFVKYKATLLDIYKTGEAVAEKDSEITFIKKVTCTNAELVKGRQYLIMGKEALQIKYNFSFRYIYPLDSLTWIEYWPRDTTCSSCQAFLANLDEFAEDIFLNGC

C5 [7] = molecular target: T2, C5; assay: Alternative human hemolysis assay using C5 depleted sera and purified human C5; format: cell-based; set-up: purchased Complement Technology, Tyler, Tex; settings: antibody-sensitized sheep erythrocytes, 1.5% human C5 depleted sera and 0.5 nM purified human C5
C5 [8] = molecular target: T2, C5; assay: Fluorescence polarization saturation binding of probe R3076 to C5; set-up: purchased Complement Technology, Tyler, Tex; settings: read-out: equilibrium dissociation constant (KD)
Protocol: FP was used for screening competitive polypeptide inhibitors of the C5 protein. […] The BODIPY-TMR dye attached to the C-terminal lysine of the protein and the subsequent labeled probe was purified by HPLC.
Polarization was measured over time, until binding reached equilibrium. KD was determined using Graphpad Prism (using “Saturating Binding Curves, One Site—Specific Binding With Hill Slope” as the curve fit to determine KD). […] Based on this information, 25 nM and 50 nM concentrations for R3076 (SEQ ID NO: 40) and C5 protein, respectively, were chosen for use in the competition assay. These concentrations represented the approximate level of protein necessary for 95% probe binding to C5 protein.

CCC[C@H](NC(=O)[C@@H](NC(=O)[C@@H]1CCCN1C(=O)[C@H](Cc1ccc(O)cc1)NC(=O)[C@H](CCC(=O)O)NC(=O)[C@H](Cc1c[nH]c2ncccc12)NC(=O)[C@H](Cc1ccc(O)cc1)NC(=O)[C@@H](NC(=O)[C@H](CC(=O)O)NC(=O)[C@@H]1CSCc2cccc(c2)CSC[C@H](NC(C)=O)C(=O)N[C@@H](C(C)C)C(=O)N[C@@H](CCC(=O)O)C(=O)N[C@@H](CCCNC(=N)N)C(=O)N[C@@H](Cc2ccccc2)C(=O)N1)C(C)(C)C)C1CCCCC1)C(N)=O [Compound R3152, [mXylyl(1,6)]Ac-C-V-E-R-F-C-D-Tbg-Y-azaTrp-E-Y-P-Chg-Nvl-NH2]
inhibitory activity in ex vivo hemolysis assays (in words) (rat C5): very little inhibitory activity
binding to rat C5 (in words) (rat C5; in vivo): do not bind
bioavailability of dose, based on AUC [1]: approximately 65%
initial distribution phase [2]: < 1 h
time for which plasma drug levels were detectable [2]: up to 48 hours
AUC(0-inf) (in vivo): 23300 ± 2120 ng·h/mL
Vd (in vivo): 1.49 ± 0.152 L/kg
clearance (in vivo): 2.15 mL/min/kg
half-life (in vivo): 10.9 ± 0.8 h
level at 48 h (in vivo): < 100 ng/mL
binding to primate C5 protein (in words) (primate C5 protein [3]; cynomolgus monkey, in vivo): binds with high affinity
time after dosing at which hemolytic activity returned to normal levels (primate C5 protein [3]; cynomolgus monkey, single 3 mg/kg IV): 48 h
plasma concentration with clear inhibition of complement-mediated hemolysis (primate C5 protein [3]; cynomolgus plasma diluted 1:100, activated sheep red blood cells): > 200 ng/mL
IC50 (primate C5 protein [4]): 2 to 20 ng/mL

CCC[C@H](NC(=O)[C@@H]1CCCN1C(=O)[C@H](CCC)NC(=O)[C@@H]1CSCc2cccc(c2)CSC[C@H](NC(=O)[C@H](CCC)NC(C)=O)C(=O)N[C@@H](c2ccccc2)C(=O)N[C@@H]([C@@H](C)O)C(=O)N[C@@H](Cc2c[nH]c3ncccc23)C(=O)N[C@@H](CCC(=O)O)C(=O)N[C@@H](Cc2ccc(O)cc2)C(=O)N(C)[C@@H](CO)C(=O)N[C@@H](Cc2c[nH]cn2)C(=O)N1)C(N)=O [Compound R3008, [mXylyl(2,10)]Ac-Nvl-C-Phg-T-azaTrp-E-Y-(N-Me)S-H-C-Nvl-P-Nvl-NH2] (Ac-[Nva]C[Phg]T[Trp(7-aza)]EY[NMeS]HC[Nva]P[Nva]-NH2; linker 2-10 via mXylylene)
IC50 (C5a): 54.5 nM
IC50 [5]: 33 nM
IC50 (C5 [6]): 97 nM

CC(=O)N[C@H]1CCCCNC(=O)C[C@@H](C(=O)N(C)[C@@H](CC(=O)O)C(=O)N[C@H](C(=O)N[C@@H](Cc2ccc(O)cc2)C(=O)N[C@@H](Cc2c[nH]c3ncccc23)C(=O)N[C@@H](CCC(=O)O)C(=O)N[C@@H](Cc2ccc(O)cc2)C(=O)N2CCC[C@H]2C(=O)N[C@H](C(=O)N[C@@H](CCCCN)C(N)=O)C2CCCCC2)C(C)(C)C)NC(=O)[C@H](Cc2ccccc2)NC(=O)[C@H](CCCNC(=N)N)NC(=O)[C@H](CCC(=O)O)NC(=O)[C@H](C(C)C)NC1=O [Compound R3192, [cyclo(1,6)]Ac-K-V-E-R-F-D-(N-Me)D-Tbg-Y-azaTrp-E-Y-P-Chg-K-NH2]
IC50 (C5 [7]): 1.5 nM

CCCCCCCCCCCCCCCC(=O)NCCCC[C@H](NC(=O)[C@@H](NC(=O)[C@@H]1CCCN1C(=O)[C@H](Cc1ccc(O)cc1)NC(=O)[C@H](CCC(=O)O)NC(=O)[C@H](Cc1c[nH]c2ncccc12)NC(=O)[C@H](Cc1ccc(O)cc1)NC(=O)[C@@H](NC(=O)[C@H](CC(=O)O)N(C)C(=O)[C@@H]1CSSCCC(=O)N[C@@H](C(C)C)C(=O)N[C@@H](CCC(=O)O)C(=O)N[C@@H](CCCNC(=N)N)C(=O)N[C@@H](Cc2ccccc2)C(=O)N1)C(C)(C)C)C1CCCCC1)C(=O)O [Compound R3198, [cyclo(1,6)](desamino)C-V-E-R-F-C-(N-Me)D-Tbg-Y-azaTrp-E-Y-P-Chg-(Lys-C16)]
IC50 (C5 [7]): 142 nM

CCC[C@H](NC(C)=O)C(=O)N[C@@H](CCC)C(=O)N[C@@H](Cc1ccc(O)cc1)C(=O)N[C@@H](CCC(=O)O)C(=O)N[C@@H](CC(N)=O)C(=O)N[C@H](C(=O)N[C@@H](Cc1ccc(O)cc1)C(=O)N[C@@H](Cc1c[nH]c2ncccc12)C(=O)N[C@@H](CCC(=O)O)C(=O)N[C@@H](Cc1ccc(O)cc1)C(=O)N1CCC[C@H]1C(=O)N[C@H](C(=O)N[C@@H](CCC)C(=O)N[C@@H](CCCCNC(=O)CCCCCNC(=O)CCC1=C(C)C2=Cc3ccc(-c4ccc(OC)cc4)n3[B-](F)(F)[N+]2=C1C)C(N)=O)C1CCCCC1)C(C)(C)C [Compound R3076, Ac-Nvl-Nvl-Y-E-N-Tbg-Y-azaTrp-E-Y-P-Chg-Nvl-K-(BODIPY-TMR-X) NH2]
Kd (C5 [8]): 8.07 nM
IC50 (C5 [6]): 297 nM
